Laboratory results reported in the supplement of paper PMC10307832.

Assays:
Assay in all cases: relative viability (nuclei count vs DMSO), 5 days (fraction); higher = more cells survive
[1] = compound: CC1=CC(=CC=C1)NC2=NC(=CS2)C3=CC=NC=C3 + CC(C)C[C@H](NC(=O)[C@H](Cc1ccccc1)NC(=O)c1cnccn1)B(O)O [Bortezomib] (partner 0.002 µM)
Summary of the method: (§1)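 For relative viability, nuclei counts in treated wells were divided by those in vehicle wells. Lung cancer cell lines had been pin-tool dosed in 1536-well plates the day after seeding and cultured for 5 days, then fixed and stained in one step (final 0.05% Triton X-100, 1% formaldehyde, 1 ug/ml Hoechst) and imaged at 4×. Doses were one drug alone or a fixed anchor-drug dose plus five library-drug doses (not always all listed) in √10 steps, and values are duplicate-plate medians.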

Masitinib + AZD7762 = compound: Cc1ccc(NC(=O)c2ccc(CN3CCN(C)CC3)cc2)cc1Nc1nc(-c2cccnc2)cs1 [Masitinib] + NC(=O)Nc1cc(-c2cccc(F)c2)sc1C(=O)N[C@H]1CCCNC1 [AZD7762] (partner 0.2 µM)
Summary of the method: as §1

Masitinib + Phenformin = compound: Cc1ccc(NC(=O)c2ccc(CN3CCN(C)CC3)cc2)cc1Nc1nc(-c2cccnc2)cs1 [Masitinib] + N=C(N)NC(=N)NCCc1ccccc1 [Phenformin] (partner 250 µM)
Summary of the method: as §1

[2] = compound: CC1=CC(=CC=C1)NC2=NC(=CS2)C3=CC=NC=C3 + O=C(CCCCCCC(=O)Nc1ccccc1)NO [Vorinostat] (partner 1 µM)
Summary of the method: as §1

| Cell Line | relative viability ([1]; first compound 0.08 µM) | relative viability ([1]; first compound 0.253 µM) | relative viability ([1]; first compound 0.8 µM) | relative viability ([1]; first compound 2.53 µM) | relative viability ([1]; first compound 8 µM) | relative viability (Masitinib + AZD7762; first compound 0.01 µM) | relative viability (Masitinib + AZD7762; first compound 0.03162 µM) | relative viability (Masitinib + AZD7762; first compound 0.1 µM) | relative viability (Masitinib + AZD7762; first compound 0.3162 µM) | relative viability (Masitinib + AZD7762; first compound 1 µM) | relative viability (Masitinib + Phenformin; first compound 0.01 µM) | relative viability (Masitinib + Phenformin; first compound 0.03162 µM) | relative viability (Masitinib + Phenformin; first compound 0.1 µM) | relative viability (Masitinib + Phenformin; first compound 0.3162 µM) | relative viability (Masitinib + Phenformin; first compound 1 µM) | relative viability ([2]; first compound 0.08 µM) | relative viability ([2]; first compound 0.253 µM) | relative viability ([2]; first compound 0.8 µM) | relative viability ([2]; first compound 2.53 µM) | relative viability ([2]; first compound 8 µM) |
| --- | --- | --- | --- | --- | --- | --- | --- | --- | --- | --- | --- | --- | --- | --- | --- | --- | --- | --- | --- | --- |
| NCI-H596 | 0.845 | 1.08 | 0.893 | 0.853 | 0.74 | 1.24 | 0.978 | 1.07 | 1.1 | 0.973 | 0.836 | 0.769 | 0.824 | 0.831 | 0.691 | 0.552 | 0.489 | 0.453 | 0.529 | 0.422 |
| NCI-H2085 | 1.02 | 1.07 | 1.06 | 0.94 | 0.574 | 0.872 | 0.915 | 0.819 | 0.893 | 0.886 | 0.631 | 0.717 | 0.771 | 0.778 | 0.657 | 0.763 | 0.763 | 0.693 | 0.755 | 0.645 |
